One test relates to PCB490-5 (human epithelioid sarcoma primary culture). Here is the method: (§1)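 Roche open-access kinase inhibitor screen (223 compounds) on human epithelioid sarcoma primary cultures from three spatially distinct regions of tumor PCB490. 384-well plates, 72 h, CellTiter-Glo viability; IC50 by Hill curve fit. 100000 nM = no IC50 reached. Compound ids carry a plate-well prefix, which is stripped.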
The next test deals with PCB490-4 (human epithelioid sarcoma primary culture). As to the method: as §1
The subject of a further test is PCB490-3 (human epithelioid sarcoma primary culture). As to the method:
as §1

In the case of `Cn1cc(C2=C(Nc3ccccc3)C(=O)NC2=O)c2ccccc21`, the IC50 cell viability with PCB490-5, in the test on PCB490-4 and with PCB490-3 was greater than 100 µM in each case.

Regarding `CN1CCN(c2ccc(Nc3nc(N)c(C(=O)c4ccc5c(c4)OCCO5)s3)cc2)CC1`, the IC50 cell viability with PCB490-5, in the test on PCB490-4 and with PCB490-3 was greater than 100 µM in each case.

For `CC(=O)N[C@@H](Cc1ccc(OP(=O)(O)O)cc1)C(=O)N[C@H]1CCC(=O)N2CCC[C@@H](C(=O)NCc3ccc(O)cc3)N2C1=O`, the IC50 cell viability in the test on PCB490-5, with PCB490-4 and with PCB490-3 was greater than 100 µM throughout.

On to `COc1ccc(N2Cc3cnc(Nc4ccccc4)nc3N([C@@H]3CC[C@@H](O)C3)C2=O)cc1`, for which the values for the IC50 cell viability in the test on PCB490-5, with PCB490-4 and in the test with PCB490-3 were 2.16 µM, 1.79 µM and 2.59 µM, respectively.

Take `O=C1C(c2c[nH]c3ccccc23)=C(c2c[nH]c3ccccc23)C(=O)N1O`: the IC50 cell viability in the test with PCB490-5, with PCB490-4 and with PCB490-3 was greater than 100 µM each time.

Take `O=C1NC(=NCCc2ccccn2)S/C1=C\c1ccc2ncccc2c1`: the IC50 cell viability in the test on PCB490-5, in the test with PCB490-4 and in the test on PCB490-3 was greater than 100 µM throughout.

As to `COc1cc[nH]c1/C=C1\C(=O)Nc2ccc(F)c(C#C[C@@H](O)[C@@H](N)[C@@H](C)O)c21`, the IC50 cell viability with PCB490-5 is 2.07 µM; in the test with PCB490-4, 4.44 µM; in the test on PCB490-3, greater than 100 µM.

In the case of `COc1cccc(C2=C(c3cn(C)c4ccc(Cl)cc34)C(=O)NC2=O)c1`, the IC50 cell viability with PCB490-5, in the test on PCB490-4 and in the test with PCB490-3 was greater than 100 µM each time.

For the compound `O=c1[nH]c2nc(NC3CCOCC3)ncc2cc1Oc1ccc(F)cc1F`, the IC50 cell viability in the test on PCB490-5, in the test on PCB490-4 and in the test on PCB490-3 was greater than 100 µM in each case.

Take `CC(=O)Nc1ccc2c(c1)C(c1ccccc1Cl)=Nc1c(n[nH]c1C)N2`: the IC50 cell viability in the test with PCB490-5 came out at 1.55 µM; in the test with PCB490-4 it was 1.72 µM; in the test with PCB490-3, 4.63 µM.

In the case of `Cn1c(=O)c(Oc2ccc(F)cc2F)cc2cnc(NC3CCOCC3)nc21`, the IC50 cell viability in the test with PCB490-5, in the test on PCB490-4 and in the test with PCB490-3 was greater than 100 µM throughout.

On to `Cn1cc(C2=C(c3cn(CCCN=C(N)N)c4ccccc34)C(=O)NC2=O)c2ccccc21`, for which the IC50 cell viability in the test on PCB490-5, in the test with PCB490-4 and in the test with PCB490-3 was greater than 100 µM in each case.

For `Cn1cc(C2=C(c3cn(C)c4ccc(OCc5ccccc5)cc34)C(=O)NC2=O)c2ccccc21`, the IC50 cell viability in the test with PCB490-5, in the test with PCB490-4 and in the test with PCB490-3 was greater than 100 µM each time.

As for `CC(C)(O)CCc1cccc(C(=O)c2cnn(-c3ccc(F)cc3)c2N)c1`, the IC50 cell viability in the test with PCB490-5, in the test on PCB490-4 and in the test on PCB490-3 was greater than 100 µM throughout.

As for `O=C1NC(=NCCCc2ccccc2)S/C1=C\c1ccc2ncccc2c1`, the IC50 cell viability in the test with PCB490-5, in the test on PCB490-4 and with PCB490-3 was greater than 100 µM each time.

`CC(=O)N[C@@H](Cc1ccc(OP(=O)(O)O)cc1)C(=O)N[C@H]1CCC(=O)N2CCC[C@@H](C(=O)NCc3ccccc3)N2C1=O`: the IC50 cell viability with PCB490-5, with PCB490-4 and in the test with PCB490-3 was greater than 100 µM each time.

Take `N=C1N=C(N)/C(=C/c2ccc3ncccc3c2)S1`: the IC50 cell viability in the test on PCB490-5, in the test on PCB490-4 and with PCB490-3 was greater than 100 µM each time.

Consider `Nc1c(C(=O)c2cccc(-c3ccc[n+]([O-])c3)c2)cnn1-c1ccc(F)cc1F`, for which the IC50 cell viability in the test with PCB490-5, with PCB490-4 and in the test on PCB490-3 was greater than 100 µM in each case.

In the case of `Cn1cc(C2=C(c3cn(CCCCCO)c4ccccc34)C(=O)NC2=O)c2ccccc21`, the IC50 cell viability with PCB490-5, in the test on PCB490-4 and in the test with PCB490-3 was greater than 100 µM in each case.

As to `COc1ccccc1C(=O)c1cnc(NC2CCN(S(C)(=O)=O)CC2)nc1N`, the IC50 cell viability with PCB490-5, with PCB490-4 and in the test with PCB490-3 was greater than 100 µM each time.

For the compound `CC(C)(O)Cn1c(=O)c(Oc2ccc(F)cc2F)cc2cnc(NC3CCOCC3)nc21`, the IC50 cell viability is greater than 100 µM with PCB490-5, greater than 100 µM with PCB490-4 and 2.86 µM in the test on PCB490-3.

As for `COc1cc(F)c(F)cc1C(=O)c1cnc(NC2CCN(S(C)(=O)=O)CC2)nc1N`, the IC50 cell viability in the test on PCB490-5, in the test on PCB490-4 and with PCB490-3 was greater than 100 µM each time.

Take `COc1cccc2c1c(C1=C(c3cn(C)c4ccccc34)C(=O)NC1=O)cn2C`: the IC50 cell viability in the test with PCB490-5, in the test on PCB490-4 and in the test on PCB490-3 was greater than 100 µM throughout.

Consider `O=C1NC(=NCc2ccccc2)S/C1=C\c1ccc2ncccc2c1`, for which the IC50 cell viability in the test on PCB490-5, with PCB490-4 and in the test on PCB490-3 was greater than 100 µM throughout.

Turning to `Cn1cc(C2=C(c3cn(C)c4cc(Cl)ccc34)C(=O)NC2=O)c2ccccc21`, the IC50 cell viability with PCB490-5, with PCB490-4 and in the test on PCB490-3 was greater than 100 µM throughout.

`Nc1c(C(=O)c2cccc(C(O)(CO)CO)c2)cnn1-c1ccc(F)cc1`: the IC50 cell viability in the test on PCB490-5, with PCB490-4 and in the test on PCB490-3 was greater than 100 µM in each case.

Turning to `Cn1cc(C2=C(c3cccc(Br)c3)C(=O)NC2=O)c2ccccc21`, the IC50 cell viability with PCB490-5, in the test with PCB490-4 and in the test with PCB490-3 was greater than 100 µM throughout.

As for `Cn1cc(C2=C(c3cccc([N+](=O)[O-])c3)C(=O)NC2=O)c2ccccc21`, the IC50 cell viability in the test on PCB490-5, with PCB490-4 and in the test on PCB490-3 was greater than 100 µM each time.

Turning to `C[C@H](CS(C)(=O)=O)Nc1ncc2cc(Oc3ccc(F)cc3F)c(=O)n(C)c2n1`, the IC50 cell viability in the test on PCB490-5, in the test with PCB490-4 and in the test with PCB490-3 was greater than 100 µM in each case.

Turning to `CCNC(=O)[C@@H]1CCCN2C(=O)CC[C@H](NC(=O)[C@H](Cc3ccc(OP(=O)(O)O)cc3)NC(C)=O)C(=O)N12`, the IC50 cell viability in the test with PCB490-5, in the test with PCB490-4 and in the test with PCB490-3 was greater than 100 µM each time.

Take `O=C1NC(=NCCc2cccs2)S/C1=C\c1ccc2ncccc2c1`: the IC50 cell viability in the test with PCB490-5, in the test with PCB490-4 and in the test on PCB490-3 was greater than 100 µM in each case.

Regarding `Cn1c(=O)c(Oc2ccc(F)cc2F)cc2cnc(NC(CO)CO)nc21`, the figures for the IC50 cell viability in the test on PCB490-5, in the test on PCB490-4 and in the test on PCB490-3 were 8.58 µM, 15 µM and greater than 100 µM, respectively.

Regarding `O=C1NC(O)C(c2c[nH]c3ccccc23)=C1c1c[nH]c2ccccc12` (centres undefined), the IC50 cell viability in the test on PCB490-5, in the test on PCB490-4 and in the test with PCB490-3 was greater than 100 µM throughout.

As to `Cn1cc(C2=C(c3cn(C)c4ccccc34)C(=O)NC2=O)c2ccccc21`, the IC50 cell viability with PCB490-5, in the test on PCB490-4 and in the test on PCB490-3 was greater than 100 µM throughout.

With `CCc1c(C)nc2sc3c(N)ncnc3c2c1C`, the IC50 cell viability in the test with PCB490-5, with PCB490-4 and in the test with PCB490-3 was greater than 100 µM throughout.

Take `Cn1cc(C2=C(c3cn(CCN)c4ccccc34)C(=O)NC2=O)c2ccccc21`: the IC50 cell viability with PCB490-5, in the test with PCB490-4 and in the test with PCB490-3 was greater than 100 µM throughout.

`COc1cccc(C(=O)c2sc(Nc3ccc(N4CCN(C(C)C)CC4)cc3)nc2N)c1`: the IC50 cell viability with PCB490-5, with PCB490-4 and with PCB490-3 was greater than 100 µM throughout.

As to `Cn1c(=O)c(Sc2ccccc2F)cc2cnc(NC3CCOCC3)nc21`, the IC50 cell viability in the test with PCB490-5, with PCB490-4 and with PCB490-3 was greater than 100 µM throughout.

For `Cc1[nH]nc2c1N=C(c1ccccc1Cl)c1cc([N+](=O)[O-])ccc1N2`, the IC50 cell viability in the test with PCB490-5, in the test with PCB490-4 and with PCB490-3 was greater than 100 µM in each case.

Take `Cn1c(=O)c(Oc2ccc(F)cc2)cc2cnc(NC3CCOCC3)nc21`: the IC50 cell viability in the test with PCB490-5, with PCB490-4 and in the test with PCB490-3 was greater than 100 µM each time.

Regarding `O=C1NC(=NCCc2ccc(Cl)cc2)S/C1=C\c1ccc2ncccc2c1`, the IC50 cell viability in the test on PCB490-5, in the test with PCB490-4 and in the test with PCB490-3 was greater than 100 µM throughout.

Take `Cn1c(=O)c(-c2ccccc2Cl)cc2cnc(NC3CCOCC3)nc21`: the IC50 cell viability in the test on PCB490-5, with PCB490-4 and with PCB490-3 was greater than 100 µM in each case.

In the case of `COc1ccc2c(C3=C(c4cn(C)c5ccccc45)C(=O)NC3=O)cn(C)c2c1`, the IC50 cell viability with PCB490-5, in the test on PCB490-4 and in the test on PCB490-3 was greater than 100 µM in each case.

Consider `CN1CCN(CC#Cc2cccc(C(=O)c3cnn(-c4ccc(F)cc4)c3N)c2)CC1`, for which the IC50 cell viability with PCB490-5, in the test with PCB490-4 and in the test with PCB490-3 was greater than 100 µM throughout.

As to `C[C@H](O)CNc1cc(-c2[nH]c3cccnc3c2-c2ccc(F)cc2)ccn1`, the IC50 cell viability with PCB490-5, in the test on PCB490-4 and in the test on PCB490-3 was greater than 100 µM throughout.

For the compound `Cc1[nH]nc2c1N=C(c1ccccc1F)c1cc(C#N)ccc1N2`, the IC50 cell viability with PCB490-5, in the test with PCB490-4 and in the test on PCB490-3 was greater than 100 µM throughout.

In the case of `Cn1cc(C2=C(c3cccc(OCC(O)CO)c3)C(=O)NC2=O)c2ccccc21` (centres undefined), the IC50 cell viability in the test on PCB490-5, with PCB490-4 and in the test with PCB490-3 was greater than 100 µM throughout.

Turning to `Cn1cc(C2=C(c3cn(C)c4cc(N)ccc34)C(=O)NC2=O)c2ccccc21`, the IC50 cell viability in the test on PCB490-5, in the test on PCB490-4 and in the test on PCB490-3 was greater than 100 µM in each case.

For the origin of these results see the supplement of paper PMC6580486.
